Assay results as given in PMC11960843, “Exploration of the tunability of BRD4 degradation by DCAF16 trans-labelling covalent glues” (European journal of medicinal chemistry, 2024).
Read-outs that look alike come from different tables or passages of the source.

How the values were obtained:
BRD4BD2 [1] = target: T1, BRD4BD2 (Homo sapiens, UniProt O60885); experiment: BRD4 AlphaScreen competition assay (JQ1-biotin displacement), BRD4BD2; type: binding
BRD4BD1 = BRD4BD1 (Homo sapiens, UniProt O60885); experiment: BRD4 AlphaScreen competition assay (JQ1-biotin displacement), BRD4BD1; type: binding
BRD4BD2 [2] = target: T1, BRD4BD2; experiment: BRD4BD2-eGFP and mCherry flow reporter degradation assay, wild type K562 cells; conditions: for DCAF16 dependent BRD4BD2 degradation (in words) / DC50: K562 cells, 16 h incubation; for Dmax: K562, read-out: maximal degradation (Dmax/16h) of BRD4BD2, K562 cells, 16 h incubation; for DC50: read-out: DC50 of BRD4BD2 degradation
Excerpt: This assay involves the co-expression of mCherry with BRD4BD1/2 fused to an enhanced green fluorescent protein (eGFP) tag, and the subsequent fluorescence measurement of BRD4BD1/2-eGFP normalized to mCherry as a readout for BRD4BD1/2 degradation. It allows for a quantitative, rapid, and facile screening of several MGDs, in a dose-and time-dependent manner. […] Thus, the BRD4BD2 stability system was used to test all subsequent GNE011 analogs in wild type and DCAF16−/− cells.
One day after infection, reporter cells were selected with puromycin at a concentration of 2 μg/mL.
(§5) K562 cells stably expressing degradation reporter were dosed with DMSO or degraders at various times and concentrations using D300e Digital Dispenser (HP). The fluorescent signal was quantified by flow cytometry (LSRFortessa flow cytometer, BD Biosciences) and analyzed using FlowJo (flow cytometry analysis software, BD Biosciences). The geometric mean of the eGFP and mCherry fluorescent signal for round and mCherry-positive cells was calculated. GFP expression was normalized to mCherry signal and drug treatments were compared to DMSO controls.

glutathione = experiment: GSH stability (glutathione reactivity) assay by LC-MS/MS; type: physicochemical; conditions: PBS containing 5 mM reduced glutathione; PBS + 5 mM GSH; extrapolated from 240 min assay
Excerpt: Furthermore, we wanted to determine the kinetics of the BRD4BD2-DCAF16 interaction given its covalent nature. […] Additionally, to understand the relationship between ternary complex formation kinetics and warhead reactivity we measured the depletion of the covalent analogs in the presence of glutathione using MS (Table S2). […].

[3] = target: T2, BRD4BD2-DCAF16 ternary complex (Homo sapiens, UniProt O60885+Q9NXF7); experiment: DDB1-DCAF16-BRD4BD2 TR-FRET ternary complex formation assay; type: biochemical; conditions: for TR-FRETmax (520 nm/490 nm ratio): 6 h degrader incubation; for BRD4BD2-DCAF16 ternary complex formation / DCAF16 recruitment (in words): time-dependent TR-FRET; for incubation time of saturation / maximum TR-FRET signal: measured at 1, 2, 4, 6 and 24 h
T2 construct: E3 ligase to bromodomain 2 (BRD4BD2); His6 (N); StrepII (N); Avi (N); made in house; host or cells: BRD4BD2: E. coli (pET100/D-TOPO)
T2 sequence (Q9NXF7 whole entry, other chains not shown): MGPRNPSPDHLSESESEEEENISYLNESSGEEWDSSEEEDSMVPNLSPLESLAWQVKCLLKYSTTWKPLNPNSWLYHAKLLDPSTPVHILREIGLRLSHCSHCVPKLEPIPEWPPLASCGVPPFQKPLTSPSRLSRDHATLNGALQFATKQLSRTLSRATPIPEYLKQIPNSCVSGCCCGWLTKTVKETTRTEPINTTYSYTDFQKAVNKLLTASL
Excerpt: To determine the relationship between covalent warheads and DCAF16 recruitment to BRD4BD2, we used a time-resolved fluorescence energy transfer (TR-FRET) assay to measure induced BRD4BD2-DCAF16 ternary complex formation (Fig. 3A).
Furthermore, we wanted to determine the kinetics of the BRD4BD2-DCAF16 interaction given its covalent nature. […] Additionally, to understand the relationship between ternary complex formation kinetics and warhead reactivity we measured the depletion of the covalent analogs in the presence of glutathione using MS (Table S2). […] Titrations of compounds to induce the DCAF16-BRD4BD complex were carried out by mixing 100 nM biotinylated BRD4BD2, 500 nM BODIPY-FL labeled DDB1ΔB-DCAF16 variants, and 2 nM terbium-coupled streptavidin (Invitrogen) in an assay buffer containing 50 mM HEPES pH 8.0, 200 mM NaCl, 0.1% Pluronic F-68 solution (Sigma), 0.5% bovine serum albumin (BSA) (w/v) and 1 mM TCEP. […] The TR-FRET signal of each data point was extracted by calculating the 520/490 nm ratio.

BRD4 [4] = target: T3, BRD4 (Homo sapiens, UniProt O60885); experiment: Washout experiment, Western blot of BRD4 degradation in K562 cells; type: cell-based; design: an 11 amino acid peptide knock-in tag to a protein-of-interest using CRISPR insertion; endogenous in cells; conditions: K562, 1 μM; for BRD4 degradation after washout compared to no washout (in words): 4 h treatment, 20 h compound-free vs 24 h no washout
Procedure: This experiment involves cell treatment and incubation with a ‘covalent’ compound, followed by a wash-step where the cells are washed and resuspended in compound-free cell media.
Cells were washed with PBS and lysed in RIPA lysis buffer (Thermo Fisher Scientific) with Halt Protease Inhibitor Cocktail (Thermo Fisher Scientific) and Benzonase (Sigma-Aldrich) for 20 min on ice. […] Membranes were blocked in Intercept (PBS) Blocking Buffer (LI-COR Biosciences) and incubated with primary antibodies overnight at 4 °C. The membranes were then washed in Tris-buffered saline with Tween-20 (TBS-T), incubated for 1 h with secondary IRDye-conjugated antibodies (LI-COR Biosciences) and washed three times in TBS-T for 5 min before near-infrared western blot detection on an Odyssey Imaging System (LI-COR Biosciences).

BRD4 [5] = target: T3, BRD4; experiment: BRD4-HiBiT assay, DCAF16 KO JURKAT cells; type: cell-based; design: an 11 amino acid peptide knock-in tag to a protein-of-interest using CRISPR insertion; endogenous in cells; host or cells: JURKAT, HiBiT-edited (wild type or DCAF16 knockout); conditions: 6 h
Procedure: (§1) Thereafter, we sought to characterize the BRD4 cellular degradation potencies in a dose-dependent manner at a shorter time point to minimize secondary effects. This was performed using the bioluminescent HiBiT-BRD4 assay, which consists of an 11 amino acid peptide knock-in tag to a protein-of-interest using CRISPR insertion. A complementary polypeptide (LgBiT) detects and interacts with all HiBiT tagged proteins, thereby reconstituting a luminescent NanoBiT enzyme, that can be quantified by its bioluminescence. WT and DCAF16 KO JURKAT cell lines expressing the BRD4-HiBiT system were generated to quantify dose-dependent BRD4 degradation after 6 h incubation (Fig. 4C).
(§2) After 6 h, the plates were subjected to Nano-Glo HiBiT Lytic detection system (Promega, #N3040) as described in manufacturer's manual. The assays were performed in biological triplicate. DC50 values were determined using a non-linear regression curve fit in GraphPad PRISM 9.5.1.

BRD4 [6] = target: T3, BRD4; experiment: Western blot of BRD4 degradation, DCAF16 KO K562 cells; type: cell-based; design: an 11 amino acid peptide knock-in tag to a protein-of-interest using CRISPR insertion; endogenous in cells; conditions: DCAF16 KO K562, 1 μM, 16 h
Procedure: (§3) Western blotting was used to determine the degradation potencies of the covalent BRD4 degraders.
(§4) Cells were washed with PBS and lysed in RIPA lysis buffer (Thermo Fisher Scientific) with Halt Protease Inhibitor Cocktail (Thermo Fisher Scientific) and Benzonase (Sigma-Aldrich) for 20 min on ice. The insoluble fraction was removed by centrifugation, the protein concentration was quantified using a BCA protein assay kit (Thermo Fisher Scientific), and an equal amount of lysate was run on SDS–PAGE 4–12% Bis–Tris Protein Gels (Thermo Fisher Scientific) and then transferred to nitrocellulose membrane with a XCell II Blot Module Wet Tank Transfer System (Thermo Fisher Scientific). Membranes were blocked in Intercept (PBS) Blocking Buffer (LI-COR Biosciences) and incubated with primary antibodies overnight at 4 °C. The membranes were then washed in Tris-buffered saline with Tween-20 (TBS-T), incubated for 1 h with secondary IRDye-conjugated antibodies (LI-COR Biosciences) and washed three times in TBS-T for 5 min before near-infrared western blot detection on an Odyssey Imaging System (LI-COR Biosciences).

BRD4 [7] = target: T3, BRD4; experiment: Western blot of BRD4 degradation, wild-type K562 cells; type: cell-based; design: an 11 amino acid peptide knock-in tag to a protein-of-interest using CRISPR insertion; endogenous in cells; conditions: wild-type K562, 1 μM, 16 h
Procedure: as §3, §4

BRD4 [8] = target: T3, BRD4; experiment: BRD4-HiBiT assay, WT JURKAT cells; type: cell-based; design: an 11 amino acid peptide knock-in tag to a protein-of-interest using CRISPR insertion; endogenous in cells; host or cells: JURKAT, HiBiT-edited (wild type or DCAF16 knockout); conditions: 6 h
Procedure: as §1, §2

BRD4BD2 [9] = target: T1, BRD4BD2; experiment: BRD4BD2-eGFP and mCherry flow reporter degradation assay, DCAF16 KO K562 cells
Excerpt: In order to investigate the degradation of BRD4 by GNE011 and related analogs, we used a fluorescent stability reporter assay reported previously (Fig. 2A) [17]. This assay involves the co-expression of mCherry with BRD4BD1/2 fused to an enhanced green fluorescent protein (eGFP) tag, and the subsequent fluorescence measurement of BRD4BD1/2-eGFP normalized to mCherry as a readout for BRD4BD1/2 degradation. It allows for a quantitative, rapid, and facile screening of several MGDs, in a dose-and time-dependent manner. […] Thus, the BRD4BD2 stability system was used to test all subsequent GNE011 analogs in wild type and DCAF16−/− cells.
Lentivirus containing sgRNA was transduced to 2 × 10^6 of K562-Cas9 cells at 10% volume ratio by spin infection. FACS sorting was performed to enrich BFP+ cells one week after infection. […] Clonal sgDCAF16-expressing K562-Cas9 cells were isolated after one month of expansion, and the genomic sequences were validated via deep sequencing of PCR amplicons targeting sgDCAF16 cutting sites (MGH CCIB DNA Core Service).
as §5

| SMILES | IC50 (BRD4BD2 [1]) [nM] | IC50 (BRD4BD1) [nM] | IC50 (BRD4BD2 [1]; read-out: IC50 BRD4BD2) [nM] | IC50 (BRD4BD1; read-out: IC50 BRD4BD1) [nM] | DCAF16 dependent BRD4BD2 degradation (in words) (BRD4BD2 [2]) | half-life (glutathione) [h] | TR-FRETmax (520 nm/490 nm ratio) [3] | BRD4BD2-DCAF16 ternary complex formation / DCAF16 recruitment (in words) [3] | BRD4 degradation without washout (in words) (BRD4 [4]; 24 h no washout) | BRD4 degradation in DCAF16 KO (in words) (BRD4 [5]) | Dmax (BRD4BD2 [2]) [%] | DC50 (BRD4BD2 [2]) [nM] | BRD4 degradation by Western blot in DCAF16 KO (in words) (BRD4 [6]) | BRD4 degradation by Western blot (in words) (BRD4 [7]) | incubation time of saturation / maximum TR-FRET signal [3] [h] | BRD4 degradation after washout compared to no washout (in words) (BRD4 [4]) | BRD4 degradation (BRD4 [8]) [%] | BRD4 degradation (in words) (BRD4 [8]) | BRD4BD2 degradation activity in DCAF16 knockout cells (in words) (BRD4BD2 [9]) | BRD4 degradation (BRD4 [8]; at 10 μM) |
| --- | --- | --- | --- | --- | --- | --- | --- | --- | --- | --- | --- | --- | --- | --- | --- | --- | --- | --- | --- | --- |
| Cc1sc2c(c1C)C(c1ccc(N)cc1)=N[C@@H](CC(=O)OC(C)(C)C)c1nnc(C)n1-2 [MMH248, tert-butyl (S)-2-(4-(4-aminophenyl)-2,3,9-trimethyl-6H-thieno[3,2-f][1,2,4]triazolo[4,3-a][1,4]diazepin-6-yl)acetate] | 4.29 | 12.5 | – | – | – | – | – | – | – | – | – | – | – | – | – | – | – | – | – | – |
| COC(=O)/C=C/c1ccc(C2=N[C@@H](CC(=O)OC(C)(C)C)c3nnc(C)n3-c3sc(C)c(C)c32)cc1 [MMH269, methyl (S,E)-3-(4-(6-(2-(tert-butoxy)-2-oxoethyl)-2,3,9-trimethyl-6H-thieno[3,2-f][1,2,4]triazolo[4,3-a][1,4]diazepin-4-yl)phenyl)acrylate] | – | – | 5.07 | 10.5 | almost no DCAF16 dependent BRD4BD2 degradation | > 12.5 | 0.18 | no significant DCAF16 recruitment | showed BRD4 degradation in 24 h no washout experiments | – | – | – | – | – | – | – | – | – | – | – |
| Cc1sc2c(c1C)C(c1ccc(/C=C/C=O)cc1)=N[C@@H](CC(=O)OC(C)(C)C)c1nnc(C)n1-2 [TMX1, tert-butyl (S,E)-2-(2,3,9-trimethyl-4-(4-(3-oxoprop-1-en-1-yl)phenyl)-6H-thieno[3,2-f][1,2,4]triazolo[4,3-a][1,4]diazepin-6-yl)acetate] | – | – | 33.9 | 8.78 | – | 6.92 | 1.34 | – | – | completely rescued by DCAF16 KO | 75 | 64 | completely rescued by DCAF16 KO | nearly complete BRD4 degradation | 1 | no or minimal difference | < 60 | noticeable BRD4 degradation | – | – |
| Cc1sc2c(c1C)C(c1ccc(NC(=O)CCl)cc1)=N[C@@H](CC(=O)OC(C)(C)C)c1nnc(C)n1-2 [MMH249, tert-butyl (S)-2-(4-(4-(2-chloroacetamido)phenyl)-2,3,9-trimethyl-6H-thieno[3,2-f][1,2,4]triazolo[4,3-a][1,4]diazepin-6-yl)acetate] | – | – | 2.59 | 3.98 | – | 8.85 | 0.77 | – | – | completely rescued by DCAF16 KO | 56 | 8 | – | moderate degradation | 24 | no or minimal difference | < 60 | noticeable BRD4 degradation | almost entirely ablated | – |
| Cc1sc2c(c1C)C(c1ccc(C#CCO)cc1)=N[C@@H](CC(=O)OC(C)(C)C)c1nnc(C)n1-2 [TMX458, tert-butyl (S)-2-(4-(4-(3-hydroxyprop-1-yn-1-yl)phenyl)-2,3,9-trimethyl-6H-thieno[3,2-f][1,2,4]triazolo[4,3-a][1,4]diazepin-6-yl)acetate] | – | – | 3.92 | 10.1 | completely inactive | – | 0.16 | no significant DCAF16 recruitment | – | – | 10 | > 10000 | – | – | – | – | – | – | – | – |
| Cc1sc2c(c1C)C(c1ccc(I)cc1)=N[C@@H](CC(=O)OC(C)(C)C)c1nnc(C)n1-2 [MMH263, tert-butyl (S)-2-(4-(4-iodophenyl)-2,3,9-trimethyl-6H-thieno[3,2-f][1,2,4]triazolo[4,3-a][1,4]diazepin-6-yl)acetate] | 4.96 | 11.7 | – | – | – | – | – | – | – | – | – | – | – | – | – | – | – | – | – | – |
| Cc1sc2c(c1C)C(c1ccc(C#CC=O)cc1)=N[C@@H](CC(=O)OC(C)(C)C)c1nnc(C)n1-2 [TMX4128, tert-butyl (S)-2-(2,3,9-trimethyl-4-(4-(3-oxoprop-1-yn-1-yl)phenyl)-6H-thieno[3,2-f][1,2,4]triazolo[4,3-a][1,4]diazepin-6-yl)acetate] | – | – | 21.7 | 2.2 | – | 8.83 | 0.65 | disintegration of the ternary complex overtime | – | completely rescued by DCAF16 KO | 69 | 703 | completely rescued by DCAF16 KO | nearly complete BRD4 degradation | 1 | no or minimal difference | < 60 | noticeable BRD4 degradation | – | ~ 73% |
